Experimental data from paper PMC7570871, “Evaluation of a New ^177Lu-Labeled Somatostatin Analog for the Treatment of Tumors Expressing Somatostatin Receptor Subtypes 2 and 5” (Molecules, 2020).
Where two headings read alike, the source gives them in different places.

What was measured:
human SST2 [1] = target: T1, human SST2 (Homo sapiens, UniProt P30874); experiment: Competition binding assay with 125I-SS-14 on membranes of HEK-SST2 cells; conditions: 125I-SS-14 radioligand
T1 construct: expressed in transfected cells; host or cells: HEK cells (HEK-SST2), stably transfected
T1 sequence (P30874 whole entry): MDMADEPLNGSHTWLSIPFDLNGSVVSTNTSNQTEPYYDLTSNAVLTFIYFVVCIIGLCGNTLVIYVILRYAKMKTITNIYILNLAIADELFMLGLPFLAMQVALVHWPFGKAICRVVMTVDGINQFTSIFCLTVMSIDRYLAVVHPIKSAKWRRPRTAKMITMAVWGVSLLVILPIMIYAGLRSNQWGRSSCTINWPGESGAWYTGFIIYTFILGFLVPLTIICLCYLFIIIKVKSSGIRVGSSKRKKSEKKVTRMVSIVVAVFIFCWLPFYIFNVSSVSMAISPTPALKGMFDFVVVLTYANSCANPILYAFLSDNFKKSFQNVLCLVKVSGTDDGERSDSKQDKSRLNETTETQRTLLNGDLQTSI
Method: (§1) Human Embryonic Kidney (HEK) cells were stably transfected with plasmids encoding the human SST2 and SST5 (HEK-SST2 and HEK-SST5) and cultivated as previously described. […] Nontransfected HEK cells were used as negative control.
(§2) Binding assays were performed as described previously.

human SST5 = target: T2, human SST5 (Homo sapiens, UniProt P35346); experiment: Competition binding assay with 125I-SS-14 on membranes of HEK-SST5 cells; conditions: 125I-SS-14 radioligand
T2 construct: expressed in transfected cells; host or cells: HEK cells (HEK-SST5), stably transfected
T2 sequence (P35346 whole entry): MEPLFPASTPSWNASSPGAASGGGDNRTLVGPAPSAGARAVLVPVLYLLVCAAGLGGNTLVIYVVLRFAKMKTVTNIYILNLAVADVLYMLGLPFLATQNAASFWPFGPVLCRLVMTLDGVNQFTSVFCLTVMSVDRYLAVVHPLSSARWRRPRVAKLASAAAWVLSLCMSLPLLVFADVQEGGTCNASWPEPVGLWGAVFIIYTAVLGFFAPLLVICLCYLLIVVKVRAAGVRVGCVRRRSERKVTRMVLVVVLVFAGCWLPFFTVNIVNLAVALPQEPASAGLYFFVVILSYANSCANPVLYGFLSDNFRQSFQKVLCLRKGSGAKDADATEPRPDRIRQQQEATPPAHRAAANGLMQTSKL
Method: as §1, §2

human SST2 [2] = target: T1, human SST2; parameters: method as in PMID 32757150; conditions: HEK-SST2 membranes, 125I-SS-14 radioligand; cited from earlier work

Question: Which results are given for `C[C@@H](O)[C@@H]1NC(=O)[C@H](CCCCN)NC(=O)[C@@H](Cc2c[nH]c3ccccc23)NC(=O)[C@H](Cc2cccc3ccccc23)NC(=O)[C@@H](NC(=O)[C@@H](Cc2ccccc2)NC(=O)CN2CCN(CC(=O)O)CCN(CC(=O)O)CCN(CC(=O)O)CC2)CSSC[C@@H](C(=O)N[C@H](CO)[C@@H](C)O)NC1=O` [^natLu-DOTA-NOC, metal not drawn, reference compound]?
Answer: IC50 (human SST2 [1]): 0.51 nM; IC50 (human SST5): 4.8 nM

Question: Which IC50 (human SST2 [2]) does the source give for “(4-amino-3-iodo)-D-Phe-c[Cys-(3-iodo)-Tyr-D-Trp-Lys-Val-Cys]-Thr-NH2 [ST8950]” here?
Answer: The IC50 was 0.28 nM.

Question: Which IC50 (human SST2 [1]) does the source give for `CC(C)[C@@H]1NC(=O)[C@H](CCCCN)NC(=O)[C@@H](Cc2c[nH]c3ccccc23)NC(=O)[C@H](Cc2ccc(O)c(I)c2)NC(=O)[C@@H](NC(=O)[C@@H](Cc2ccc(N)c(I)c2)NC(=O)CN2CCN(CC(=O)O)CCN(CC(=O)O)CCN(CC(=O)O)CC2)CSSC[C@@H](C(=O)N[C@H](C(N)=O)[C@@H](C)O)NC1=O` [^natLu-DOTA-ST8950, metal not drawn] here?
Answer: The IC50 was 0.37 nM.

Question: Which IC50 (human SST2 [2]) does the source give for “^natGa-DOTA-NOC: natGa complex of DOTA-NOC, values from” here?
Answer: The IC50 was 0.7 nM.
